Laboratory results as given in PubChem BioAssay (NCI).
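The compound was tested at five concentrations on cells cultured in 96-well plates, with a 48-hour exposure period. Definition used: TGI = concentration required for complete inhibition of growth.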

Legend:
Test in all cases: growth of human tumour cells (NCI), 48 h
SK-MEL-5 melanoma = test system: SK-MEL-5 melanoma
HCT-116 colon = test system: HCT-116 colon
RPMI-8226 leukemia = test system: RPMI-8226 leukemia
CAKI-1 renal = test system: CAKI-1 renal
SK-MEL-2 melanoma = test system: SK-MEL-2 melanoma
HT29 colon = test system: HT29 colon
CCRF-CEM leukemia = test system: CCRF-CEM leukemia
NCI/ADR-RES ovarian = test system: NCI/ADR-RES ovarian
BT-549 breast = test system: BT-549 breast
MCF7 breast = test system: MCF7 breast

SMILES	TGI (SK-MEL-5 melanoma) [µM]	TGI (HCT-116 colon) [µM]	TGI (RPMI-8226 leukemia) [µM]	TGI (CAKI-1 renal) [µM]	TGI (SK-MEL-2 melanoma) [µM]	TGI (HT29 colon) [µM]	TGI (CCRF-CEM leukemia) [µM]	TGI (NCI/ADR-RES ovarian) [µM]	TGI (BT-549 breast) [µM]	TGI (MCF7 breast) [µM]
OCCN1CCN2C=C(C3CCCC4N(CCO)CCN34)CCC21 (stereo unspecified)	> 100	> 87.2	44.9	> 100	> 75.6	> 100	36.3			
COc1ccccc1/C=C1\NC(=S)N(/C=C2\C(=O)Oc3ccccc3C2=O)C1=O	78.7	> 100		> 100	> 100	> 100	76.5	> 100	> 100	> 100
CSc1nc2c(ncn2C2OCC(O)C(O)C2O)c(=O)n1C (stereo unspecified)	> 100	> 100	> 100		> 100	> 100	> 100	> 100		> 100
CC(C)(C)c1cc2c(O)c(c1)Cc1cc(C(C)(C)C)cc(c1O)Cc1cc(C(C)(C)C)cc(c1O)Cc1cc(C(C)(C)C)cc(c1O)Cc1cc(C(C)(C)C)cc(c1O)Cc1cc(C(C)(C)C)cc(c1O)Cc1cc(C(C)(C)C)cc(c1O)Cc1cc(C(C)(C)C)cc(c1O)C2	> 50	> 50	> 50	> 50	> 50	> 50	> 50	> 50		> 50
O=C(CCCl)NNC1=NCCCN1	> 100	> 100	> 100		> 100	> 100	> 100	> 100	> 100	> 100
CN1CCC2(CC1)C(=NC1CCCCC1)NC(=S)N2c1ccccc1	> 100	> 100	> 100			> 100	> 100	> 100		> 100
O=C(O)CC(Sc1ccccc1)c1ccccc1 (stereo unspecified)	> 100	> 100	> 100	> 100	> 100	> 100		> 100	> 100	> 100
COP(=O)(OC)C(O)CC(C)C (stereo unspecified)	> 100	> 100	> 100	> 100	> 100	> 100				> 100
COC(=O)[C@H](Cc1ccc(OC(C)(C)C)cc1)N[C@H](C)C(=O)N[C@@H](Cc1ccccc1)C(=O)OCc1ccccc1	> 100	> 100	> 100	> 100		> 100	> 100	> 100		81.5
O=C(O)c1ccc(C2SCc3nc4ccccc4n32)cc1 (stereo unspecified)	> 100	> 100	> 100	> 100	> 100	> 100	> 100		> 100	> 100
CCOC(=O)c1[nH]cc(C)c1-c1ccc2c(-c3ccccc3)nc3ccccc3n12	6.29	12.5		17.8	16.8	11.9	13	10.3	17.4	14.3
O=C(NCCNCCCNC(=O)c1cc(-c2ccccc2)nc2ccccc12)c1cccc(OCc2ccccc2)c1OCc1ccccc1	3.12	3.13	5.05	3.01		2.98	3.47	3.51		3.1
C/C(=N\Nc1nc2cccnc2s1)c1ccccn1	9.02	> 32.2	> 100	12.2	> 34.6		> 100	0.06	15.9	> 54.8
COC(=O)C1=C(C(=O)OC)SC2(S1)C(C(=O)OC)=C(C(=O)OC)Sc1c2ssc1=Nc1ccc(Cl)cc1	2.96	1.15		2.21	1.36	1.78			5.11	2.42
C=C[C@]1(C)CCC2=C(CCC3C2(C)CCC[C@@]3(C)COC(C)=O)C1 (stereo partly specified)	31	30.9	35.6	37.6	29	33.9	35.4			
COc1ccc(C2CC3(c4ccccc4)ON=C(c4ccccc4)N3c3ccccc3S2)cc1 (stereo unspecified)	> 100	> 100	> 100	> 100		> 100	> 100	> 100	> 100	> 100
Cc1c2ccncc2c(C)c2c1[nH]c1ccc(OCC(F)(F)F)cc12	3.35		5.32	3.66	3.19	3.11	4.9			
CC(=O)OC1COC(N2C(=O)C(=O)c3cc(Br)ccc32)C(OC(C)=O)C1OC(C)=O (stereo unspecified)	> 100		> 100	> 100	> 100	> 100	> 100			
O=Cc1ccc(CCl)cc1	30.2	29.1			32.2	34.2	> 100			
CCCCCC/C=C1\CCC(CN2CCOCC2)C1=O (stereo unspecified)	38.4	27.7	> 100	31.4	33.4	34.2	> 25.4			
O=C(OCc1ccccc1)N(CCCCN(CCCNCc1ccccc1)C(=O)OCc1ccccc1)CCCNCc1ccccc1	> 100	0.384	0.605	2.93	2.27	0.663		3.43		> 100
O=c1[nH]c(=O)n(C2OC(CO)C(O)C2O)cc1Oc1ccccc1 (stereo unspecified)	> 100	> 100		> 100	> 100	> 100	> 100	> 100		> 100
CC(=O)OC12c3ccccc3-c3ccccc3C1C1C(=O)OC(=O)C12 (stereo unspecified)	> 10		> 10	> 10	> 10	> 10	> 10	> 10		> 10
COc1cc(C2C(Cl)C(=O)N2NC(=O)c2ccc(N)cc2)cc(Br)c1O (stereo unspecified)	31.7	22.3	51.5	30.7	32.3	41.9	12.1			
